We go through six sequences from publication PMC4182091, “A Common Minimal Motif for the Ligands of HLA-B*27 Class I Molecules” (PLoS ONE, 2014).

For orientation: EC50 means the concentration that produces a half-maximal response.

What all share (format): cell-based
One test has as its target T1, HLA-B*2703 (Homo sapiens, UniProt P01889, D138H/D201E/E176V/E204Q/G107R/H137Y/K202T/N104T/N87E/Q56L/Q94K/R106L/R155S/R180L/S101D/S121N/S48T/Y140D/Y33H/Y83H/Y91C).
T1 construct: expressed in transfected cells; host or cells: RMA-S (TAP-deficient murine cell line)
Briefly: HLA/peptide complex stability assay, RMA-S cells transfected with HLA-B*2703.

A further test deals with T2, HLA-B*2701 (Homo sapiens, UniProt P01889, D138H/D201E/D98Y/E176V/E204Q/G107R/H137Y/K202T/L105A/N104T/N87E/Q56L/Q94K/R106L/R155S/R180L/S101N/S121N/S48T/Y140D/Y33H/Y91C).
T2 construct: expressed in transfected cells; host or cells: RMA-S (TAP-deficient murine cell line)
As to the kind of experiment: HLA/peptide complex stability assay, RMA-S cells transfected with HLA-B*2701.

The target in a further test is HLA-B*2702 (Homo sapiens, UniProt P01889, D138H/D201E/E176V/E204Q/G107R/H137Y/K202T/L105A/N104I/N87E/Q56L/Q94K/R106L/R155S/R180L/S101N/S121N/S48T/Y140D/Y33H/Y91C). Briefly: HLA/peptide complex stability assay, RMA-S cells transfected with HLA-B*2702.
The next test concerns the target T3, HLA-B*2706 (Homo sapiens, UniProt P01889, A235G/D201E/E204Q/G107R/H137Y/K202T/N104T/N87E/Q56L/Q94K/R106L/R155S/R180L/S121N/S48T/Y33H/Y91C).
T3 construct: expressed in transfected cells; host or cells: RMA-S (TAP-deficient murine cell line)
As to the kind of experiment: HLA/peptide complex stability assay, RMA-S cells transfected with HLA-B*2706.

The target in another test is T4, HLA-B*2709 (Homo sapiens, UniProt P01889, D138H/D201E/E176V/E204Q/G107R/H137Y/K202T/N104T/N87E/Q56L/Q94K/R106L/R155S/R180L/S101D/S121N/S48T/Y140H/Y33H/Y91C).
T4 construct: expressed in transfected cells; host or cells: RMA-S (TAP-deficient murine cell line)
Briefly: HLA/peptide complex stability assay, RMA-S cells transfected with HLA-B*2709.

For the next test, the target named is T5, HLA-B*2705 (Homo sapiens, UniProt P01889, D138H/D201E/E176V/E204Q/G107R/H137Y/K202T/N104T/N87E/Q56L/Q94K/R106L/R155S/R180L/S101D/S121N/S48T/Y140D/Y33H/Y91C).
T5 construct: expressed in transfected cells; host or cells: RMA-S (TAP-deficient murine cell line)
Briefly: HLA/peptide complex stability assay, RMA-S cells transfected with HLA-B*2705.

For the next test, the target named is HLA-B*2704 (Homo sapiens, UniProt P01889, A235G/D138H/D201E/E204Q/G107R/H137Y/K202T/N104T/N87E/Q56L/Q94K/R106L/R155S/R180L/S121N/S48T/Y140D/Y33H/Y91C). As to the kind of experiment: HLA/peptide complex stability assay, RMA-S cells transfected with HLA-B*2704.
[1] abbreviates: relative affinity (EC50 class), B*2703.
Where [2] appears, read: relative affinity (EC50 class), B*2701.
Where [3] appears, read: relative affinity (EC50 class), B*2702.
Setting [4] is: relative affinity (EC50 class), B*2706.
The mark [5] stands for this setting: relative affinity (EC50 class), B*2709.
Setting [6] is: relative affinity (EC50 class), B*2704.
Setting [7] is: […], peptide 200 µM, mean ± S.D. of three to five independent experiments, SD.

Read-outs that look alike come from different tables or passages of the source. Ends that are not written are not given here. Where only a bound is given, the exact number is not on record here.

With KRLPADVLKK [M2 150-159], the EC50 on HLA-B*2703 (EC50, B*2703, SD) was 78 ± 10 µM; on HLA-B*2703 (setting [1]), 61 to 200 µM; at HLA-B*2701 (read-out: EC50, B*2701) it was more than 200 µM; at HLA-B*2701 (setting [2]) it was more than 200 µM; at HLA-B*2702 (EC50, B*2702, SD), 136 ± 63 µM; on HLA-B*2702 (setting [3]) it was 61 to 200 µM. Also, the EC50 on HLA-B*2706 (EC50, B*2706) is more than 200 µM; on HLA-B*2706 (setting [4]) it was more than 200 µM; at HLA-B*2709 (EC50, B*2709, SD), 22 ± 9 µM; on HLA-B*2709 (setting [5]), 20 to 60 µM; on HLA-B*2705 (EC50, B*2705, SD), 18 ± 3 µM; at HLA-B*2704 (EC50, B*2704, SD), 73 ± 9 µM. In addition, at HLA-B*2704 (setting [6]), the half-maximal effective concentration (EC50) lay in the range of 61 to 200 µM. The “relative MHC class I affinity according to the EC50 value, in words (high, medium, low)” value (“relative MHC class I affinity according” below) on HLA-B*2705 was “high”.

Turning to KRYKGLLPKDI [NP 195-205], the EC50 was found to be 20 ± 11 µM at HLA-B*2703 (EC50, B*2703, SD); 8 ± 1 µM at HLA-B*2701 (EC50, B*2701, SD); 9 ± 1 µM at HLA-B*2702 (EC50, B*2702, SD); 1 ± 1 µM at HLA-B*2706 (EC50, B*2706, SD); 7 ± 2 µM at HLA-B*2709 (EC50, B*2709, SD); 7 ± 5 µM at HLA-B*2705 (EC50, B*2705, SD). At HLA-B*2704 (EC50, B*2704, SD), this sequence displayed an EC50 of 16 ± 3 µM. On HLA-B*2705, the “relative MHC class I affinity according” value was “high”.

As to LRNEESEKMAK [P 198-208], the 50% effective concentration (EC50) on HLA-B*2703 (EC50, B*2703) was more than 200 µM; at HLA-B*2703 (setting [1]), more than 200 µM; on HLA-B*2701 (read-out: EC50, B*2701) it was more than 200 µM; at HLA-B*2701 (setting [2]), more than 200 µM; at HLA-B*2702 (read-out: EC50, B*2702) it was more than 200 µM; on HLA-B*2702 (setting [3]) it was more than 200 µM. Also, the concentration for a half-maximal effect (EC50) at HLA-B*2706 (EC50, B*2706) was more than 200 µM; on HLA-B*2706 (setting [4]), more than 200 µM; at HLA-B*2709 (EC50, B*2709, SD), 86 ± 12 µM; at HLA-B*2709 (setting [5]), 61 to 200 µM; on HLA-B*2705 (EC50, B*2705, SD), 98 ± 35 µM; at HLA-B*2705 (relative affinity (EC50 class), B*2705) it was 61 to 200 µM. The concentration for a half-maximal effect (EC50) was more than 200 µM on HLA-B*2704 (read-out: EC50, B*2704) and more than 200 µM at HLA-B*2704 (setting [6]). Besides, the “relative MHC class I affinity according” value at HLA-B*2705 is “low affinity”.

On to RRAAAAAAAI [RRA7I], for which the concentration for a half-maximal effect (EC50) at HLA-B*2703 (EC50, B*2703, SD) was 7 ± 5 µM; on HLA-B*2701 (SD), 7 ± 2 µM; at HLA-B*2702 (EC50, B*2702, SD), 28 ± 16 µM; at HLA-B*2702 (read-out: relative affinity (EC50 class), B*2702), 20 to 60 µM; on HLA-B*2706 (SD), 2 ± 1 µM; at HLA-B*2709 (EC50, B*2709, SD), 2 ± 1 µM. The EC50 is 4 ± 3 µM on HLA-B*2705 (SD) and 7 ± 2 µM on HLA-B*2704 (SD).

On to “RRANNVLKNEA [A11-NP 184-194, monosubstituted Ala analog of HRSV NP 184-194, […]]”, for which the “fluorescence index, B*2703” value on HLA-B*2703 (setting [7]) came out at 1.7±0.2. The “fluorescence index, B*2701” value at HLA-B*2701 (setting [7]) was 1.1±0.1. The “fluorescence index, B*2702” value at HLA-B*2702 (setting [7]) worked out at 1.7±0.1. Moreover, the “fluorescence index, B*2706” value on HLA-B*2706 (setting [7]) is on record as 2.7±0.2. The “fluorescence index, B*2709” value on HLA-B*2709 (setting [7]) was 1.8±0.1. Besides, the “fluorescence index, B*2705” value at HLA-B*2705 (setting [7]) worked out at 2.1±0.1. At HLA-B*2704 (setting [7]), the “fluorescence index, B*2704” value was determined as 2.0±0.2.

Turning to RRANNVLKNEM [NP 184-194], the concentration giving a half-maximal response (EC50) is 60 ± 29 µM on HLA-B*2703 (EC50, B*2703, SD); 20 to 60 µM on HLA-B*2703 (setting [1]); 39 ± 9 µM at HLA-B*2701 (EC50, B*2701, SD); 20 to 60 µM at HLA-B*2701 (setting [2]); 43 ± 27 µM at HLA-B*2702 (EC50, B*2702, SD); 20 to 60 µM on HLA-B*2702 (setting [3]). In addition, the EC50 at HLA-B*2706 (EC50, B*2706, SD) was 2 ± 1 µM; on HLA-B*2709 (EC50, B*2709, SD) it was 7 ± 1 µM; at HLA-B*2705 (EC50, B*2705, SD), 20 ± 8 µM; at HLA-B*2704 (EC50, B*2704, SD), 19 ± 10 µM. Besides, at HLA-B*2705, the “relative MHC class I affinity according” value is “high”.
